Results reported in ChEMBL document CHEMBL6078665, “Structural optimization of naturally derived Ar-turmerone, as novel neuroinflammation suppressors effective in an Alzheimer mouse model” (Bioorg Med Chem, 2025).
Active and inactive are the calls of the source. The rule behind the calls is not given here.

How the values were obtained:
BV-2 [1] = assay: Anti-inflammatory activity against LPS-induced mouse BV-2 cells assessed as inhibition rate of LPS-induced […] production at 80 uM pretreated for 1 hr followed by challenged with LPS and measured after 24 hrs incubation by Griess assay; format: functional; settings: time 25 hrs
BV-2 [2] = assay: (§1) Cytotoxicity against LPS-induced mouse BV-2 cells assessed as cell survival at 80 uM measured after 24 hrs incubation by MTT assay; format: toxicity, cell-based; settings: bv-2, 24 h, 80 µM
[3] = as §1; format: toxicity, cell-based; settings: LPS-induced BV-2 cells, read-out: Survival
Mus musculus [4] = assay: Anti-neuroinflammatory activity against LPS-induced C57BL/6 mouse model assessed as reversal of LPS-induced TNFalpha increase in hippocampal homogenate at 100 mg/kg, po measured up to 5 days by ELISA kit; format: functional, organism-based; settings: time <= 5.0 day
Mus musculus [5] = assay: Anti-neuroinflammatory activity against LPS-induced reference memory loss in C57BL/6 mouse model assessed as increase in number of times cross the target quadrant at 100 mg/kg, po measured up to 5 days by reference memory (probe trial) test; format: functional, organism-based; settings: time <= 5.0 day
Mus musculus [6] = assay: Anti-neuroinflammatory activity against LPS-induced reference memory loss in C57BL/6 mouse model assessed as increase in time spent in target quadrant at 100 mg/kg, po measured up to 5 days by reference memory (probe trial) test; format: functional, organism-based; settings: time <= 5.0 day
Mus musculus [7] = assay: Anti-neuroinflammatory activity against LPS-induced C57BL/6 mouse model assessed as reversal of LPS-induced IL-1 beta increase in hippocampal homogenate at 100 mg/kg, po measured up to 5 days by ELISA kit; format: functional, organism-based; settings: time <= 5.0 day
BV-2 [8] = assay: Anti-inflammatory activity against LPS-induced mouse BV-2 cells assessed as inhibition rate of LPS-induced IL-1beta production pretreated for 1 hr followed by challenged with LPS and measured after 24 hrs incubation by ELISA assay; format: functional, cell-based
BV-2 [9] = assay: Anti-inflammatory activity against LPS-induced mouse BV-2 cells assessed as inhibition rate of LPS-induced TNFalpha production pretreated for 1 hr followed by challenged with LPS and measured after 24 hrs incubation by ELISA assay; format: functional, cell-based
BV-2 [10] = assay: Anti-inflammatory activity against LPS-induced mouse BV-2 cells assessed as inhibition rate of LPS-induced NO production pretreated for 1 hr followed by challenged with LPS and measured after 24 hrs incubation by Griess assay; format: functional, cell-based
Mus musculus [11] = assay: Anti-neuroinflammatory activity against LPS-induced neuronal damage C57BL/6 mouse model assessed as restoration of number of normal neuronal cells in cortex at 100 mg/kg, po measured up to 5 days by Nissl staining based assay; format: functional, organism-based; settings: time <= 5.0 day
Mus musculus [12] = assay: Anti-neuroinflammatory activity against LPS-induced neuronal damage C57BL/6 mouse model assessed as restoration of number of normal neuronal cells in hippocampus at 100 mg/kg, po measured up to 5 days by Nissl staining based assay; format: functional, organism-based; settings: time <= 5.0 day
Mus musculus [13] = assay: Anti-neuroinflammatory activity against LPS-induced spatial learning loss in C57BL/6 mouse model assessed as shortening of escape latency at 100 mg/kg, po measured up to 5 days by Morris water maze test; format: functional, organism-based; settings: time <= 5.0 day
Mus musculus [14] = assay: Anti-neuroinflammatory activity against LPS-induced C57BL/6 mouse model assessed as reversal of LPS-induced TNFalpha increase in cortex at 100 mg/kg, po measured up to 5 days by ELISA kit; format: functional, organism-based; settings: time <= 5.0 day
Mus musculus [15] = assay: Anti-neuroinflammatory activity against LPS-induced spatial learning in C57BL/6 mouse model assessed as swimming pathway at 100 mg/kg, po measured up to 5 days by Morris water maze test; format: functional, organism-based; settings: time <= 5.0 day
Mus musculus [16] = assay: Anti-neuroinflammatory activity against LPS-induced C57BL/6 mouse model assessed as reversal of LPS-induced IL-1 beta increase in cortex at 100 mg/kg, po measured up to 5 days by ELISA kit; format: functional, organism-based; settings: time <= 5.0 day

SMILES | inhibition at 80 µM (BV-2 [1]) [%] | viability at 24 h, 80 µM [3] [%] | IC50 (BV-2 [8]) [µM] | IC50 (BV-2 [9]) [µM] | IC50 (BV-2 [10]) [µM] | further results
CC(C)=CC(=O)CC(C)c1ccc(-c2ccccc2)cc1 (centres undefined) | 18.9 | – | – | – | – | Activity (BV-2 [2]): Non-toxic
CC(C)=CC(=O)OC(C)c1ccc(-c2ccccc2)cc1 (centres undefined) | 44.5 | > 80 | – | – | – | –
CC(C)=CC(=O)CC(C)c1ccccc1Cl (centres undefined) | 47.7 | > 80 | – | – | – | –
CCCCc1nc(-c2ccc(OCCCN(CC)CC)cc2)cn1-c1ccc(Oc2ccc(Cl)cc2)cc1 | – | – | – | – | – | Activity (Mus musculus [4]): Active; Activity (Mus musculus [5]): Active; Activity (Mus musculus [6]): Active; Activity (Mus musculus [7]): Active
CC(C)=CC(=O)CC(c1ccc(F)cc1)c1ccc(C(F)(F)F)cc1 (centres undefined) | 19.1 | > 80 | – | – | – | –
CC(C)=CC(=O)C[C@H](C)c1ccc(C)cc1 | – | > 80 | 18.5 | 39.9 | 25.4 | Activity (Mus musculus [4]): Active; Activity (Mus musculus [11]): Active; Activity (Mus musculus [12]): Active; Activity (Mus musculus [7]): Active
CC(C)=CC(=O)NC(C)c1ccccc1 (centres undefined) | 22.3 | – | – | – | – | –
CC(C)=CC(=O)OC(C)c1ccccc1 (centres undefined) | 24.9 | – | – | – | – | –
CC(C)=CC(=O)NC(C)c1ccc(-c2ccccc2)cc1 (centres undefined) | 16.9 | – | – | – | – | Activity (BV-2 [2]): Non-toxic
CC(C)=CC(=O)OC(C)c1ccc(C(F)(F)F)cc1 (centres undefined) | 28.2 | > 80 | – | – | – | –
CC(C)=CC(=O)CC(c1ccc(F)cc1)c1ccc(-c2ccccc2)cc1 (centres undefined) | 29.3 | – | – | – | – | Activity (BV-2 [2]): Non-toxic
CC(C)=CC(=O)CC(c1ccc(-c2ccccc2)cc1)C(C)C (centres undefined) | 69.7 | – | 56.2 | 51.4 | 26.6 | Activity (BV-2 [2]): Non-toxic
CCCc1ccc(CNC(=O)C=C(C)C)cc1 | 59.8 | > 80 | 43.9 | 53.6 | 49.4 | –
CC(C)=CC(=O)NC(C)c1ccc2ccccc2c1 (centres undefined) | 60.1 | > 80 | 32.5 | 24.5 | 44.2 | Activity (Mus musculus [13]): Active; Activity (Mus musculus [14]): Active; Activity (Mus musculus [4]): Active; Activity (Mus musculus [15]): Active; Activity (Mus musculus [5]): Active; Activity (Mus musculus [11]): Active; Compound Exhibited Superior Effect Compared To Ar-Turmerone And Ttp488; Activity (Mus musculus [6]): Active; Activity (Mus musculus [12]): Active; Compound Exhibited Superior Effect Compared To Ar-Turmerone And Ttp488; Activity (Mus musculus [7]): Active; Activity (Mus musculus [16]): Active
CC(C)=CC(=O)CC(C)c1ccc(C)cc1 (racemic) | 81.5 | > 80 | 19.7 | 42.5 | 30.2 | –
CC(C)=CC(=O)OC(C)c1ccc(Cl)cc1 (centres undefined) | 15.8 | > 80 | – | – | – | –
CC(C)=CC(=O)NC(c1ccccc1)c1ccc(C)cc1 (centres undefined) | 71 | > 80 | 54.1 | 50.3 | 30.4 | Activity (Mus musculus [13]): Active; Activity (Mus musculus [4]): Active; Compound Exhibited Superior Effect Compared To Ar-Turmerone; Activity (Mus musculus [15]): Active; Activity (Mus musculus [7]): Active; Compound Exhibited Superior Effect Compared To Ar-Turmerone
CC(C)=CC(=O)OC(C)c1ccc2ccccc2c1 (centres undefined) | 7.97 | > 80 | – | – | – | –
CC(C)=CC(=O)C[C@@H](C)c1ccc(C)cc1 | – | – | 23.1 | 40.9 | 29.1 | –
CCCC(OC(=O)C=C(C)C)c1ccc(-c2ccccc2)cc1 (centres undefined) | 14.9 | > 80 | – | – | – | –
CC(C)=CC(=O)NC(C)c1ccc(Cl)cc1 (centres undefined) | 38 | > 80 | – | – | – | –
CC(C)=CC(=O)NC(C)c1ccc(C)cc1 (centres undefined) | 79.8 | > 80 | 14 | 27.5 | 17.3 | Activity (Mus musculus [13]): Active; Activity (Mus musculus [14]): Active; Activity (Mus musculus [4]): Active; Activity (Mus musculus [15]): Active; Activity (Mus musculus [7]): Active; Activity (Mus musculus [16]): Active
CC(C)=CC(=O)CC(C)c1ccc(C(F)(F)F)cc1 (centres undefined) | 26.8 | > 80 | – | – | – | –
CC(C)=CC(=O)OC(C)c1ccc(C)cc1 (centres undefined) | 64.5 | > 80 | 34 | 28.5 | 42.5 | Activity (Mus musculus [13]): Active; Activity (Mus musculus [4]): Active; Activity (Mus musculus [15]): Active; Activity (Mus musculus [7]): Active
CC(C)=CC(=O)CC(c1ccc(C)cc1)c1ccc(F)cc1 (centres undefined) | 8.15 | > 80 | – | – | – | –
CC(C)=CC(=O)NC(C)c1ccc(C(F)(F)F)cc1 (centres undefined) | 28 | > 80 | – | – | – | –
CC(C)=CC(=O)CC(c1ccc(C)cc1)C(C)C (centres undefined) | 71 | > 80 | 42.4 | 46.5 | 30.9 | –
